Source: patent US11338004B2, “Composition for preventing or treating cranial nerve disease comprising fomes fomentarius extract, fraction thereof, or compound isolated therefrom as active ingredient” (priority 2015, dated 2022)

Columns and labels:
IL-1β = IL-1β in LPS-treated BV2 cells; format: cell-based, mouse; design: unit not given here
Experimental: (§1) A mouse BV2 cell line was stored and maintained in a humidified incubator at 37° C. under a 5% CO2 condition using a DMEM culture medium supplemented with 10% FBS, 100 U/ml of penicillin and 100 μg/ml of streptomycin, was trypsinized, and was subcultured.
(§2) BV2 cells were placed in a 6-well plate at 7.5×10^5 cells/well, and stabilized at 37° C. and 5.0% CO2 for 12 hours. After that, LPS and the Fomes fomentarius CHCl3 fractions, the nonadecanone (2-Nonadecanone) or the docosenol (cis-13-Docosenol) compounds were placed according to groups and were incubated for 1 hour. The cell culture was collected and used for cytokine analysis. All the cell culture was removed, and then 1 ml of dPBS was dispensed to each well to wash and remove the wells. 200 μl of the lysis buffer was dispensed per well and the cells attached to the bottom of the well were removed with a cell scriper, and then were slowly mixed and reacted for […] on ice at 4° C. The cells were removed with a scriper again and all the lysis solution was collected. The collected lysis solution was centrifuged at 15,000 rpm for 15 minutes at 4° C. so that only the supernatant was collected. In order to plot standard curves for protein quantification, a standard BSA solution ([…]) and a dilution were prepared in which bradford solution and D.W. were diluted with 4:1. After the bradford dilution was dispensed in each 200 μl to 96-well, the standard BSA solution and the cell lysis supernatant were dispersed in a volume of 10 μl per well, and then they were mixed by pipetting. After 10 minutes, the protein was quantitated by measuring the absorbance at 595 nm in a reader. The subsequent procedures were carried out in the same manner as in the quantitative analysis of the protein of Example 3-3.

AChE = AChE (Homo sapiens, UniProt P22303); test: Acetylcholinesterase inhibitory activity; format: biochemical; conditions: read-out: acetylcholinesterase inhibitory activity (%)
Experimental: AChE and acetylthocholine iodine (ATC) were dissolved in 100 mM phosphate buffer (pH 8.0) to prepare 0.25 U/mL and 75 mM, respectively. […] 2.8 mL of phosphate buffer (100 mM, pH 8.0), 30 μL of AChE (0.25 U/mL), and 100 μL of DTNB were added to 30 μL of the extract, and were mixed. Then, the mixture was preincubated at 37° C. for 10 minutes. Then, 30 μL of substrate ATC was added thereto and was reacted at 37° C. for 3 minutes, and then the absorbance was measured at 412 nm. As a control group, 30 μL of 100 mM phosphate buffer (pH 8.0) was added instead of the extract, and then was measured.

p38 = test: Western blotting of LPS-induced p38 phosphorylation in BV2 cells; format: cell-based, mouse
Experimental: as §2

xanthine oxidase = xanthine oxidase (Homo sapiens, UniProt P47989); test: Xanthine oxidase inhibitory activity; format: biochemical; conditions: for inhibition at 10 µg/mL: 10 μg/mL; for inhibition at 20 µg/mL: 20 μg/mL; for inhibition at 40 µg/mL: 40 μg/mL; for inhibition at 80 µg/mL: 80 μg/mL; for inhibition at 160 µg/mL: 160 μg/mL; for inhibition at 320 µg/mL: 320 μg/mL; for inhibition at 640 µg/mL: 640 μg/mL
Experimental: 0.2 ml of the substrate solution in which 2 mM xanthine was dissolved was added to 0.1 ml of a sample solution and 0.6 ml of 0.1 M potassium phosphate buffer at pH 7.5, and 0.1 ml of 0.2 unit/ml xanthine oxidase was added thereto, followed by reaction at 37° C. for 5 minutes. Then, 1 ml of 1N HCl was added to terminate the reaction, and then the absorbance of the uric acid produced in the reaction solution was measured at 292 nm. The inhibitory activity of xanthine oxidase was shown by the absorbance reduction rate of the addition group and the non-addition group of the sample solution.
Xanthine oxidase acts as a rate-limiting enzyme in the terminal oxidation of all purines and is an enzyme that acts as a source of oxidizing agents such as superoxide radicals and hydrogen peroxide. The superoxide anion inhibition by xanthine/xanthine oxidase enzymes is shown by superoxide anion scavenging activity and xanthine oxidase inhibition and has biologically important meaning through inhibition of gout and formation of free radicals. The superoxide radical scavenging effects of 10, 20, 40, 80, 160, 320, and 640 μg mL-1 of each fraction extract of the Fomes fomentarius were compared using butylated hydroxy anisole (BHA) as a positive control group.
The superoxide radical scavenging effects of 10, 20, 40, 80, 160, 320, and 640 μg mL-1 of the Acer tegmentosum maxim extract were compared using butylated hydroxy anisole (BHA) as a positive control group.
The superoxide radical scavenging effects of 10, 20, 40, 80, 160, 320, and 640 μg mL-1 of the berchemia berchemiaefolia extract were compared using butylated hydroxy anisole (BHA) as a positive control group.
The superoxide radical scavenging effects of 10, 20, 40, 80, 160, 320, and 640 μg mL-1 of the Lithospermum erythrorhizon extract were compared using butylated hydroxy anisole (BHA) as a positive control group.

TNF-α = TNF-α in LPS-treated BV2 cells; format: cell-based, mouse; design: unit not given here
Experimental: as §1, §2

xanthine oxidase, sequence (P47989 whole entry, species assumed): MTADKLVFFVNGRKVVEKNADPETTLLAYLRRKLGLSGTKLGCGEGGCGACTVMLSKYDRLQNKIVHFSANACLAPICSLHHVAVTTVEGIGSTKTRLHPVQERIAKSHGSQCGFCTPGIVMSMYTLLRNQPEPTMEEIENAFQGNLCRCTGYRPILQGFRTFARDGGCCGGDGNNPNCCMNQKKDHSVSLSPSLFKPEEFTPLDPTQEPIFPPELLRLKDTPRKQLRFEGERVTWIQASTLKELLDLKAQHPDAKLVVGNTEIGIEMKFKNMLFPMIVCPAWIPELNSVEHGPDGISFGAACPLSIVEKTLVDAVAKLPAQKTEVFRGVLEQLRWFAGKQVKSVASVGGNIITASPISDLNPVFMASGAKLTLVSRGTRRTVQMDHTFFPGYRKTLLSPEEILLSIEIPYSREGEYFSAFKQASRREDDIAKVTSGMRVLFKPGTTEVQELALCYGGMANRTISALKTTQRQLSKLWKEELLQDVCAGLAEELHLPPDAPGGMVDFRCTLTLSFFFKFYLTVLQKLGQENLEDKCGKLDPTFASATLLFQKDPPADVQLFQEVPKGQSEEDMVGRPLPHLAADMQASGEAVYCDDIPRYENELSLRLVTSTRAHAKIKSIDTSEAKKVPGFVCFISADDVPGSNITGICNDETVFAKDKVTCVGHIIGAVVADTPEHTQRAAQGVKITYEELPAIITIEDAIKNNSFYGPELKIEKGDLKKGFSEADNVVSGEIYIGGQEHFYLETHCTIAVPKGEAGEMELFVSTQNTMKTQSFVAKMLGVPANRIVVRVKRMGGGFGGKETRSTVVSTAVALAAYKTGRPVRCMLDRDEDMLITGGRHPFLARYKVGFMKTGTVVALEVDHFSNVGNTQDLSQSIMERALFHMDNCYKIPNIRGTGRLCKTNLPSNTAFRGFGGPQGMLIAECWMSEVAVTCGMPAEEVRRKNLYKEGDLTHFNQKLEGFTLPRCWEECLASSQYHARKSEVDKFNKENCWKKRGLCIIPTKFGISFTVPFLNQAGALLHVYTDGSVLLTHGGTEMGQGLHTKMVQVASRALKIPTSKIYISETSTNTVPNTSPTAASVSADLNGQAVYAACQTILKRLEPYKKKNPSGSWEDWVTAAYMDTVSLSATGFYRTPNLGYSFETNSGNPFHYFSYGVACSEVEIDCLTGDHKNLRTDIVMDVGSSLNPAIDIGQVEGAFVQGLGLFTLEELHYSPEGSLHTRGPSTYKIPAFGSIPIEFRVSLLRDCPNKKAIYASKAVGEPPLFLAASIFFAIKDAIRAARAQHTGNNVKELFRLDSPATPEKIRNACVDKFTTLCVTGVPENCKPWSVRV
AChE, sequence (P22303 32-614): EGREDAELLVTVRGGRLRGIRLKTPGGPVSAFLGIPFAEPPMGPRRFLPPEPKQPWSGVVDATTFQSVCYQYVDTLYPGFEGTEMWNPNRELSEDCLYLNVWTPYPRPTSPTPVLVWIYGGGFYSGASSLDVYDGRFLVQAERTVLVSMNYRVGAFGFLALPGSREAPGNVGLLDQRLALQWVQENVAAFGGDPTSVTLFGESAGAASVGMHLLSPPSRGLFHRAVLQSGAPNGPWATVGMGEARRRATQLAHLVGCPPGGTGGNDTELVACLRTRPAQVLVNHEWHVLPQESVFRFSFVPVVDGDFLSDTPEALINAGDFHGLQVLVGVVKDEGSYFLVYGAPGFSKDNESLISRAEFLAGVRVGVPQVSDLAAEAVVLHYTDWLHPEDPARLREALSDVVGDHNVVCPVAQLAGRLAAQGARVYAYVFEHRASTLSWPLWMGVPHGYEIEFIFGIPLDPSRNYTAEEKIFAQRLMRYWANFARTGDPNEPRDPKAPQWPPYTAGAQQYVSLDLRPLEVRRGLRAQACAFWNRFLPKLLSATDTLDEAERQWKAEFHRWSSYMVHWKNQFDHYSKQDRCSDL

Row | SMILES | IL-1β level (IL-1β; 5 μg/ml) | IL-1β level (IL-1β; 20 μg/ml) | IL-1β level (IL-1β; 50 μg/ml) | IL-1β level (IL-1β; 100 μg/ml) | inhibition at 10 µg/mL (AChE) [%] | inhibition at 20 µg/mL (AChE) [%] | inhibition at 40 µg/mL (AChE) [%] | inhibition at 80 µg/mL (AChE) [%] | inhibition at 160 µg/mL (AChE) [%] | inhibition at 320 µg/mL (AChE) [%] | inhibition at 640 µg/mL (AChE) [%] | p-p38/p-38 ratio (%), expression ratio (vehicle 100%) (p38; 5 μg/ml) | p-p38/p-38 ratio (%), expression ratio (vehicle 100%) (p38; 20 μg/ml) | p-p38/p-38 ratio (%), expression ratio (vehicle 100%) (p38; 50 μg/ml) | p-p38/p-38 ratio (%), expression ratio (vehicle 100%) (p38; 100 μg/ml) | inhibition at 10 µg/mL (xanthine oxidase) [%] | inhibition at 20 µg/mL (xanthine oxidase) [%] | inhibition at 40 µg/mL (xanthine oxidase) [%] | inhibition at 80 µg/mL (xanthine oxidase) [%] | inhibition at 160 µg/mL (xanthine oxidase) [%] | other results
1 | CCCCCCCC/C=C\CCCCCCCCCCCCO [docosenol, cis-13-Docosenol] | 65.15±7.6 | 59.12±6.1 | 50.55±4.2 | 48.19±5.8 | 18.1 ± 2.6 | 23.1 ± 3.8 | 28.4 ± 1.9 | 35.9 ± 5.1 | 40.9 ± 6.8 | 55.1 ± 4.9 | 59.6 ± 6.6 | about 69% | about 48% | about 36% | about 25% | 0.9 ± 0.3 | 2.5 ± 0.5 | 3.6 ± 0.7 | 5.8 ± 1.1 | 7.7 ± 0.9 | inhibition at 320 µg/mL (xanthine oxidase): 9.6 ± 0.8%; inhibition at 640 µg/mL (xanthine oxidase): 11.8 ± 1.4%; TNF-α level (TNF-α; 5 μg/ml): 60.12±7.4; TNF-α level (TNF-α; 20 μg/ml): 40.58±6.2; TNF-α level (TNF-α; 50 μg/ml): 28.15±4.1; TNF-α level (TNF-α; 100 μg/ml): 22.87±5.6
2 | CCCCCCCCCCCCCCCCCC(C)=O [nonadecanone, 2-Nonadecanone] | 70.12±4.8 | 65.56±5.1 | 58.11±6.5 | 43.66±3.4 | 11.6 ± 1.1 | 18.9 ± 0.9 | 23.4 ± 2.8 | 30.1 ± 1.8 | 35.1 ± 3.1 | 41.5 ± 2.2 | 41.9 ± 3.8 | about 75% | about 54% | about 42% | about 29% | 4.1 ± 0.5 | 6.9 ± 0.8 | 12.3 ± 1.1 | 20.5 ± 0.9 | 21.6 ± 0.7 | inhibition at 320 µg/mL (xanthine oxidase): 24.6 ± 1.1%; inhibition at 640 µg/mL (xanthine oxidase): 30.8 ± 1.4%; TNF-α level (TNF-α; 5 μg/ml): 79.12±4.1; TNF-α level (TNF-α; 20 μg/ml): 70.24±5.0; TNF-α level (TNF-α; 50 μg/ml): 59.56±6.2; TNF-α level (TNF-α; 100 μg/ml): 50.47±3.1
